Target: Nuclear receptor coactivator 3 (Homo sapiens) (UniProt Q9Y6Q9)
Experiment: reduction of cellular SRC-3 protein level, late-stage follow-up, mechanism study for SRC-3 inhibitor probe project, cell-based, MCF-7, Western blot, powder samples (AID 652066)
Conditions: MCF-7 SRC-3 protein level, 24 h

Chain of Nuclear receptor coactivator 3 (Homo sapiens) (Q9Y6Q9 whole entry, looked up): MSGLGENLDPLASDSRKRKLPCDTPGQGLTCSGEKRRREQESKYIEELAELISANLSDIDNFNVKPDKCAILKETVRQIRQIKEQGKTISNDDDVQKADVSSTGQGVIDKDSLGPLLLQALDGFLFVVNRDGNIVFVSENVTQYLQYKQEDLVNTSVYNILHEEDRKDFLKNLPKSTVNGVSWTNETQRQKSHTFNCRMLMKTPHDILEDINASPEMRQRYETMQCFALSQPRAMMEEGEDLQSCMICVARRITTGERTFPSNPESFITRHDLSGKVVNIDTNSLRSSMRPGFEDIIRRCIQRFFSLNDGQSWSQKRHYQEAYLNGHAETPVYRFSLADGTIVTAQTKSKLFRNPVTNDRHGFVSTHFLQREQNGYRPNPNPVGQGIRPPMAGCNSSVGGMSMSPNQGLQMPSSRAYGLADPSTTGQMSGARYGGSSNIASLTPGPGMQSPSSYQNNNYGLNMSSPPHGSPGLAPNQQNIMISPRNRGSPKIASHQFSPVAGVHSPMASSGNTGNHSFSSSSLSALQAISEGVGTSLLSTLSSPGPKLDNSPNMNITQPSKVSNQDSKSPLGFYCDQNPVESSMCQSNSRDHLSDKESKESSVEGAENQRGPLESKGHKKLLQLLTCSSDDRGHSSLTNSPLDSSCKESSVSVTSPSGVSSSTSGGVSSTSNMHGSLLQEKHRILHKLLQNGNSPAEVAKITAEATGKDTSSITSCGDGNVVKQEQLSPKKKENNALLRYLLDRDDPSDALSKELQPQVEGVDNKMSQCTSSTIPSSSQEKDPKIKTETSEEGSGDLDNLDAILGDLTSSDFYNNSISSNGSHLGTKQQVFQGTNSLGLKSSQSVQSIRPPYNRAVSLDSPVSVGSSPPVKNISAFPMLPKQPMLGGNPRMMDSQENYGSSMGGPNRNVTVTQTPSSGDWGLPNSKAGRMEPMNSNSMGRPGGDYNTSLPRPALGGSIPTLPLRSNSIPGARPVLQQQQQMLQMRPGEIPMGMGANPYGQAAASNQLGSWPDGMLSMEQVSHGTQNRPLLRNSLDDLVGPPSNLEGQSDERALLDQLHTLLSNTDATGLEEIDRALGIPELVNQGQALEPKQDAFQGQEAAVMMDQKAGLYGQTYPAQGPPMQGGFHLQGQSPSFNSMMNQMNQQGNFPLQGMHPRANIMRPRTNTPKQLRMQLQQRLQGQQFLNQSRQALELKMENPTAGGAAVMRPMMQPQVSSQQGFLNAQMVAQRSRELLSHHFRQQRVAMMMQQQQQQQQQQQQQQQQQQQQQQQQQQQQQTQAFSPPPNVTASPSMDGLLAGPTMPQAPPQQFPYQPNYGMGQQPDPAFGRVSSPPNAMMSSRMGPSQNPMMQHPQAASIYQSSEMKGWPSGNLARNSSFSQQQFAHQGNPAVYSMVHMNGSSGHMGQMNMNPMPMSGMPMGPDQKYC

| SMILES | IC50 |
| --- | --- |
| NC(=O)c1sc2nc3c(c(-c4ccco4)c2c1N)CCC3 | < 2 µM |
| COc1cc2c(cc1OC)C(NC(=O)C(F)(F)F)CNC2=O (stereo unspecified) | < 2 µM |
| O=C(Nc1nc(-c2ccccn2)cs1)c1cccc(S(=O)(=O)N2CCOCC2)c1 | < 2 µM |

The next lines start with the values.

| IC50 | SMILES |
| --- | --- |
| < 2 µM | O=C(CCl)N1N=C(c2ccco2)CC1c1ccco1 (stereo unspecified) |
| < 0.4 µM | O=C(CCl)N1N=C(c2ccco2)CC1c1cccs1 (stereo unspecified) |
| < 0.4 µM | COc1cc(C2c3cc4c(cc3C(OC3OC5COC(c6cccs6)OC5C(O)C3O)C3COC(=O)C23)OCO4)cc(OC)c1O (stereo unspecified) |
